Measured values: ChEMBL document CHEMBL5055668 (J Med Chem, 2021)
Calls of active or inactive are those of the source.

Key:
BMDM [1] = assay: (§1) Induction of conversion of M2-macrophages to the M1 phenotype in CM of MC38 cells treated C57BL/6 mouse BMDM cells assessed as upregulation of Il12 mRNA expression at 30 to 100 nM preincubated with culture medium of MC38 cells for 24 hrs followed by compound addition and measured after 24 hrs by qPCR analysis; assay type: functional, cell-based; settings: dose 30-100 nM
THP-1 [2] = assay: Induction of conversion of M2-macrophages to the M1 phenotype in CM of HCT116 cells treated […]-differentiated human THP-1 cells assessed as down regulation of Retnla mRNA expression at 30 to 100 nM incubated for 24 hrs by qPCR analysis; assay type: functional, cell-based; settings: dose 30-100 nM
HCT-116 = assay: Antiproliferative activity against human HCT116 cells cultured with culture medium of M2-macrophages assessed as reduction in cell viability at 10 to 100 nM incubated for 24 hrs by CCK-8 assay; assay type: functional, cell-based; settings: dose 10-100 nM
MC-38 [3] = assay: Antitumor activity against mouse MC38 cells allografted in C57BL6 mouse assessed as decrease in Arg1 mRNA expression at 10 to 20 mg/kg, po administered daily for 2 weeks by qPCR analysis; assay type: functional, organism-based; settings: dose 10-20 mg/kg
MC-38 [4] = assay: Antitumor activity against mouse MC38 cells allografted in C57BL6 mouse assessed as decrease in Il10 mRNA expression at 10 to 20 mg/kg, po administered daily for 2 weeks by qPCR analysis; assay type: functional, organism-based; settings: dose 10-20 mg/kg
MC-38 [5] = assay: Antitumor activity against mouse MC38 cells allografted in C57BL6 mouse assessed as reduction in AKT phosphorylation in tumor tissue at 5 to 10 mg/kg, po administered daily for 2 weeks by Western blot analysis; assay type: functional, organism-based; settings: dose 5-10 mg/kg
MC-38 [6] = assay: Antiproliferative activity against mouse MC38 cells cultured with culture medium of M2-macrophages assessed as reduction in cell viability at 10 to 100 nM incubated for 24 hrs by CCK-8 assay; assay type: functional, cell-based; settings: dose 10-100 nM
MC-38 [7] = assay: Antiproliferative activity against mouse MC38 cells assessed as reduction in cell viability at 10 to 100 nM incubated for 24 hrs by CCK-8 assay; assay type: functional, cell-based; settings: dose 10-100 nM
BMDM [8] = assay: as §1, with “down regulation” for “upregulation”, “Retnla” for “Il12”; assay type: functional, cell-based; settings: dose 30-100 nM
MC-38 [9] = assay: Antitumor activity against mouse MC38 cells allografted in C57BL6 mouse assessed as increase in Nos2 mRNA expression at 10 to 20 mg/kg, po administered daily for 2 weeks by qPCR analysis; assay type: functional, organism-based; settings: dose 10-20 mg/kg
[10] = target: T1, Macrophage colony-stimulating factor 1 receptor (Mus musculus) (UniProt P09581); assay: Inhibition of CSF-1R signaling pathway in C57BL/6 mouse BMDM cells assessed as reduction in M-CSF induced CSF-1R phosphorylation preincubated for 12 hrs followed by M-CSF stimulation for 30 mins by Western blot analysis; assay type: cell-based; settings: dose 100.0 nM
T1 sequence (whole entry): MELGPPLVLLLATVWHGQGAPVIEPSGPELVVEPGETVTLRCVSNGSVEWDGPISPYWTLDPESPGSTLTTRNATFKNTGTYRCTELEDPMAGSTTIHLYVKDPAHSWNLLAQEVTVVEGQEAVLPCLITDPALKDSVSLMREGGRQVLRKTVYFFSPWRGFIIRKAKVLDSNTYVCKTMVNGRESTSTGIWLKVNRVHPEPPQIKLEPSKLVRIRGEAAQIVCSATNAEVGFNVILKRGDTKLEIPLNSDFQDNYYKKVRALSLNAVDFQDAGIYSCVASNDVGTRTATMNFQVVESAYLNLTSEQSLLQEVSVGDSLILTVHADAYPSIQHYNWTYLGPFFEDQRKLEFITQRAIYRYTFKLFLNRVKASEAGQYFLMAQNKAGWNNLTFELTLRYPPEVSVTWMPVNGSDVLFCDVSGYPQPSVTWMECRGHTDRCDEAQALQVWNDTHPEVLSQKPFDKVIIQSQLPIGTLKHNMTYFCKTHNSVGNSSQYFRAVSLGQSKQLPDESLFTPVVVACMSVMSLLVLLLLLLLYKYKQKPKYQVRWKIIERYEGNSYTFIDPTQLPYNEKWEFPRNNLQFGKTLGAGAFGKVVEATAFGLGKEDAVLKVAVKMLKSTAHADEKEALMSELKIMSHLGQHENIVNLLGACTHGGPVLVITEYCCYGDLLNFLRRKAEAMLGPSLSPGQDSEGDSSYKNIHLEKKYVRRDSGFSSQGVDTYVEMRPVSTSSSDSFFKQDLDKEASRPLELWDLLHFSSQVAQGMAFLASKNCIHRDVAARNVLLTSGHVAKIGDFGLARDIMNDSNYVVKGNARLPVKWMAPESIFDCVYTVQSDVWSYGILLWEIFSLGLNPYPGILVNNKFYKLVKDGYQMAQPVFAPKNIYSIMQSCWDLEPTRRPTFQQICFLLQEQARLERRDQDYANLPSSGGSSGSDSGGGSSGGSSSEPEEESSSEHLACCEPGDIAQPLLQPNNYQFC

THP-1 [11] = assay: Induction of conversion of M2-macrophages to the M1 phenotype in CM of HCT116 cells treated […]-differentiated human THP-1 cells assessed as down regulation of Chil3 mRNA expression at 30 to 100 nM incubated for 24 hrs by qPCR analysis; assay type: functional, cell-based; settings: dose 30-100 nM
BMDM [12] = assay: as §1, with “down regulation” for “upregulation”, “Arg1” for “Il12”; assay type: functional, cell-based; settings: dose 30-100 nM
THP-1 [13] = assay: Induction of conversion of M2-macrophages to the M1 phenotype in CM of HCT116 cells treated […]-differentiated human THP-1 cells assessed as upregulation of Tnf mRNA expression at 30 to 100 nM incubated for 24 hrs by qPCR analysis; assay type: functional, cell-based; settings: dose 30-100 nM
[14] = target: T1, Macrophage colony-stimulating factor 1 receptor (Mus musculus); assay: Binding affinity to CSF-1R in C57BL/6 mouse BMDM cells assessed as increase in melting temperature at 100 nM after 1 hr by CETSA; assay type: cell-based
[15] = target: T1, Macrophage colony-stimulating factor 1 receptor (Mus musculus); assay: Binding affinity to CSF-1R in C57BL/6 mouse BMDM cells at 100 nM after 1 hr by SIP assay; assay type: cell-based
MC-38 [16] = assay: Induction of conversion of M2-macrophages to the M1 phenotype in CM of MC38 cells treated C57BL/6 mouse BMDM cells transfected with CSF1R shRNA2 assessed as decrease in Tnf mRNA expression measured after 24 hrs by qPCR analysis; assay type: functional, cell-based
Mus musculus = assay: Toxicity in C57BL/6 mouse allografted with mouse MC38 cells assessed as liver damage at 5 to 20 mg/kg, po administered every day for 2 weeks by histopathological analysis; assay type: organism-based, MC-38; settings: in vivo, 336 h, dose 5-20 mg/kg
BMDM [17] = assay: as §1, with “Nos2” for “Il12”; assay type: functional, cell-based; settings: dose 30-100 nM
MC-38 [18] = assay: Induction of conversion of M2-macrophages to the M1 phenotype in CM of MC38 cells treated C57BL/6 mouse BMDM cells transfected with CSF1R shRNA2 assessed as decrease in Nos2 mRNA expression measured after 24 hrs by qPCR analysis; assay type: functional, cell-based

Cc1[nH]c(/C=C2\C(=O)Nc3cc(NC(=O)Nc4cc(C(C)(C)C)on4)ccc32)c(C)c1NC(=O)CN1CCN(C)CC1
active: Activity (BMDM [1]) | Activity (THP-1 [2]) | Activity (HCT-116) | Activity (MC-38 [3]) | Activity (MC-38 [4]) | Activity (MC-38 [5]) | Activity (MC-38 [6]) | Activity (BMDM [8]) | Activity (MC-38 [9]) | inhibition [10] Dose-dependent effect | Activity (THP-1 [11]) | Activity (BMDM [12]) | Activity (THP-1 [13]) | Activity [15] | Activity (MC-38 [16]) | Activity (BMDM [17]) | Activity (MC-38 [18])
Non-Toxic: Activity (Mus musculus)
68 °C: Tm [14]
inactive: Activity (MC-38 [7])
